Converted amounts (≈) assume the structure as drawn. Structures can show the parent of a compound that is named as a salt. Where two headings read alike, the source gives them in different places. Blank lines part the entries; values can stand above or below the compound they belong to.
How the values were obtained:
C6 glioma cells = assay: In vivo tumor inhibition: subcutaneous Xenograft model with C6 glioma cells in mice; design: species or system mice (BALB/c, nu/nu); conditions: for Inhibition of tumor growth (FIGS. 1, 2, and 3): IP injection, 15 mg/kg/day, AA10 and AA12 in DMSO, AA14 in PBS
Procedure: In vivo tumor inhibition was measured using a subcutaneous Xenograft model.
C6 cells were maintained in Ham's F10 supplemented with 10% fetal bovine serum (FBS) and 2 mM glutamine (GLN). Cells were harvested at or near confluence with 0.05% Trypsin-EDTA and pelleted at 450×g for 10 min. Pellets were resuspended in sterile PBS or media (without FBS) to a particular concentration and the cells were implanted into the hindflank of mice. Tumor growth was measured over 3 to 6 weeks using venier calipers. Tumor volumes were calculated as a product of length x width x height unless otherwise indicated. AA10 and AA12 were solubilized in 50-100 μL vehicle (DMSO) while AA14 was dissolved in PBS (pH 7.4). The compounds were delivered by IP injection at 15 mg/kg/day.
The compound was dissolved in phosphate buffered saline and the animals were treated with 30 mg/kg/day and 50 mg/kg/day.

Solubility of compounds = type: physicochemical
[1] = Toxicity studies (LD50, LD10, organ damage) in mice; type: in vivo; conditions: mouse, in vivo
Procedure: (§1) Toxicity studies were carried out in animal models for AA10, AA12 and AA14. AA10 and AA12 were solubilized in DMSO and AA14 was dissolved in PBS (pH 7.4). The dosage resulting in a 50% mortality rate (LD50) and a 10% mortality rate (LD10) was determined as described below.
(§2) Five mice (BALB/c) were treated with different concentrations of compound. […] The LD50 was calculated from a plot of % mortality versus dose (log M) using a four parameter logistic equation.
(§3) At the end of the experiment an animal from each study administered with 100 mg/kg of compound was sacrificed and pathologically analyzed for organ damage.

mice (BALB/c) = assay: as above; type: in vivo
Procedure: as §1, §2, §3

C6 cells = assay: In vitro tumor inhibition: anchorage-dependent C6 cell growth assay (sulforhodamine B); type: cell-based; conditions: for IC50: Rattus norvegicus, C6 cells, 2000 cells/well, 4 days, 37° C., SRB stain
Procedure: The assay measures protein content of acid-fixed cells using the counterion binding dye sulforhodamine B (SRB, Sigma).
AA10 and AA12 were solubilized in DMSO (Sigma, cell culture grade), and AA14 was dissolved in PBS (pH 7.4), the compounds were diluted into appropriate growth medium at two-fold the desired final assay concentration.
Compound (100 μL) was added to 96-well plates containing attached cellular monolayers C6 cells (2000 cells/well in 100 μL). After 4 days (37° C., 5% CO2) the monolayers were washed 3 times with PBS and fixed with 200 μL ice-cold 10% trichloroacetic acid (TCA) (Fisher Scientific), and kept at 4° C. for 60 minutes. The TCA was removed and the fixed monolayers were washed 5 times with tap water and allowed to dry completely at room temperature on absorbent paper. The cellular protein was stained for 10 min with 100 μL 0.4% SRB dissolved in 1% acetic acid. After 5 washes with tap water, the dye was solubilized in 10 mM Tris base (100 μL per well) and absorbance read at 570 nm on a Dynatech plate reader model MR5000. Growth inhibition data are expressed as aL percentage of absorbance detected in control wells which were treated with 0.4% DMSO or PBS alone. […] IC50 values were determined using a four parameter curve fit function.

[2] = Stability compared with leflunomide; type: physicochemical
[3] = tested on: autoimmune animal diseases; conditions: Bartlett R. R. et al., Agents and Actions 32:10-21 (1991); cited from earlier work
[4] = organic solvent or mixture, in DMSO, read-out: Solubility in DMSO
[5] = mice (BALB/c), observed 7 to 14 days after last dose, AA10 and AA12 in DMSO, AA14 in PBS

SMILES: CC(O)=C(C#N)C(=S)Nc1ccc(C(F)(F)F)cc1.[Na]
Tumor inhibition at higher AA14 concentrations (FIG. 4) (C6 glioma cells; 30 mg/kg/day and 50 mg/kg/day in phosphate buffered saline): increased tumor inhibition | Inhibition of tumor growth (FIGS. 1, 2, and 3) (C6 glioma cells): inhibit tumor growth | Solubility in PBS (in words) (Solubility of compounds; AA14 compared with leflunomide and its hydroxycrotonamide metabolite): soluble in PBS | solubility (Solubility of compounds; aqueous buffer, in PBS (phosphate buffered saline at pH 7.4), read-out: Solubility in PBS): 275 mg/mL | LD50 [1]: 145 mg/kg | LD10 (mice (BALB/c); mouse, in vivo): 120 mg/kg

SMILES: Cc1oncc1C(=S)Nc1ccc(C(F)(F)F)cc1 [AA10, 5-Methyl-4-(4-trifluoromethylphenyl)aminothiocarbonylisoxazole]
Inhibition of tumor growth (FIGS. 1, 2, and 3) (C6 glioma cells): inhibit tumor growth | Inhibition of hyper-proliferative cell growth (in words) (C6 cells): able to inhibit hyper-proliferative cell growth | IC50 (C6 cells; 96 h): 2 µM | Solubility in ethanol compared with leflunomide (Solubility of compounds; in ethanol): more soluble in ethanol | solubility (Solubility of compounds; [4]): ≥ 1000 mg/mL | LD50 [1, 5]: 96 mg/kg | LD10 (mice (BALB/c); [5]): 77 mg/kg | Stability compared with leflunomide [2]: appears to be more stable than leflunomide

SMILES: CC(O)=C(C#N)C(=S)Nc1ccc(C(F)(F)F)cc1 [AA12, 1-Cyano-2-hydroxy-1-(4-trifluoromethylphenyl)aminothiocarbonylpropene]
Inhibition of tumor growth (FIGS. 1, 2, and 3) (C6 glioma cells): inhibit tumor growth | Inhibition of hyper-proliferative cell growth (in words) (C6 cells): able to inhibit hyper-proliferative cell growth | IC50 (C6 cells; 96 h): 0.8 µM | solubility (Solubility of compounds; [4]): 400 mg/mL (≈ 1400 mM) | LD50 [1, 5]: 79 mg/kg | LD10 (mice (BALB/c); [5]): 62 mg/kg

SMILES: CC(O)=C(C#N)S(=O)(=O)Nc1ccc(C(F)(F)F)cc1 [AA17, 1-Cyano-2-hydroxy-1-(4-trifluoromethylphenylaminosulfonyl)propene]
IC50 (C6 cells; 96 h): 30 µM

SMILES: CC(O)=C(C#N)S(=O)(=O)Nc1ccc(C(F)(F)F)cc1 [AA18, 1-cyano-2-hydroxy-1-(4-trifluoromethylphenylaminosulfonyl)propene sodium salt]
IC50 (C6 cells; C6, 96 h): 24 µM

IC50 (C6 cells; 96 h): < 1 µM
SMILES: N#CC(C(=S)Nc1ccc(C(F)(F)F)cc1)=C(O)C1CC1 [Compound 3, 3-cyclopropyl-3-hydroxy-2-[(4-trifluoromethylphenyl)aminothiocarbonyl]acrylonitrile]

IC50 (C6 cells; 96 h): 31.2 µM
SMILES: C=C(C)C(O)=C(C#N)C(=S)Nc1ccc(C(F)(F)F)cc1 [Compound 6, 3-hydroxy-3-(propen-2-yl)-2-[[4-(trifluoro-methyl)-phenyl]aminothiocarbonyl]acrylonitrile]

IC50 (C6 cells; 96 h): 36.7 µM
SMILES: CC(O)=C(C#N)C(=S)Nc1ccc(F)cc1Br [Compound 7, 3-hydroxy-3-methyl-2-[(2-bromo-4-fluorophenyl)aminothiocarbonyl]acrylonitrile]

IC50 (C6 cells; 96 h): > 100 µM
SMILES: CC(O)=C(C#N)C(=S)Nc1ccccc1C(F)(F)F [Compound 12, 3-hydroxy-3-methyl-2-[[2-(trifluoromethyl)-phenyl]aminothiocarbonyl]acrylonitrile]

IC50 (C6 cells; 96 h): 15.2 µM
SMILES: CC(O)=C(C#N)C(=S)Nc1cccc(C(F)(F)F)c1 [Compound 17, 3-hydroxy-3-methyl-2-[[3-(trifluoromethyl)phenyl]aminothiocarbonyl]acrylonitrile]

IC50 (C6 cells; 96 h): 24.3 µM
SMILES: CC(O)=C(C#N)C(=S)Nc1ccc(S(=O)(=O)N2CCCCC2)cc1 [Compound 22, 3-hydroxy-3-methyl-2-[[4-(piperidine-1-sulfonyl)-phenyl]aminothiocarbonyl]acrylonitrile]

IC50 (C6 cells; 96 h): > 20 µM
SMILES: CC(O)=C(C#N)C(=S)Nc1ccc(S(N)(=O)=O)cc1 [Compound 27, 3-hydroxy-3-methyl-2-[[4-(aminosulfonyl)phenyl]aminothiocarbonyl]acrylonitrile]

IC50 (C6 cells; 96 h): 35.3 µM
SMILES: CC(O)=C(C#N)C(=S)Nc1cccc(Cl)c1Cl [Compound 32, 3-hydroxy-3-methyl-2-[(2,3-dichlorophenyl)aminothiocarbonyl]acrylonitrile]

IC50 (C6 cells; 96 h): 6.1 µM
SMILES: CC(O)=C(C#N)C(=S)Nc1ccc(Cl)c(Cl)c1 [Compound 37, 3-hydroxy-3-methyl-2-[(3,4-dichlorophenyl)-aminothiocarbonyl]acrylonitrile]

IC50 (C6 cells; 96 h): 53.3 µM
SMILES: CC(O)=C(C#N)C(=S)Nc1ccc(Cl)cc1Cl [Compound 42, 3-hydroxy-3-methyl-2-[(2,4-dichlorophenyl)aminothiocarbonyl]acrylonitrile]

SMILES: Cc1oncc1C(=O)Nc1ccc(C(F)(F)F)cc1 [leflunomide, 5-methylisoxazole-4 carboxylic acid-(4-trifluromethyl)-anilide, reference compound]
Preventing and curing autoimmune animal diseases [3]: very effective in preventing and curing several autoimmune animal diseases
